Experimental data taken from ChEMBL document CHEMBL1201862, “PubChem BioAssay data set” (2004).
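The compound was tested at five concentrations on cells cultured in 96-well plates, with a 48-hour exposure period. The concentration for 50% growth inhibition is given as GI50.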 Activity calls are given as the source filed them. Cut-off read from the data, not from the text of the source: active = GI50 up to about 1.1 µM and inactive = higher.

Columns and labels:
Assay in all cases: inhibition of tumour cell growth, NCI panel, 48 h
[1] = tested on: A549
[2] = tested on: COLO 205
[3] = tested on: HCC 2998
[4] = tested on: HOP-62
[5] = tested on: K562
[6] = tested on: KM12
[7] = tested on: OVCAR-3
[8] = tested on: RPMI-8226
[9] = tested on: SK-OV-3
[10] = tested on: SN12C
[11] = tested on: SW-620
[12] = tested on: U-251
[13] = tested on: UO-31
[14] = tested on: LOX IMVI
[15] = tested on: NCI-H226
[16] = tested on: SF-268
[17] = tested on: TK-10

Measured: GI50

CCOC1c2nc3ccccc3nc2-c2ccccc2N1C(C)=O (stereo not given)
inactive: [1] > 100 µM | [2] > 100 µM | [3] > 100 µM | [4] > 100 µM | [5] 83 µM | [6] > 100 µM | [7] > 100 µM | [8] > 100 µM | [9] > 100 µM | [10] > 100 µM | [11] > 100 µM | [12] > 100 µM | [13] > 100 µM

CC1(C)c2ccccc2N2O[C@@H]3C(=O)N(c4ccccc4)C(=O)[C@@H]3C21c1ccccc1 (stereo not given in full)
inactive: [1] > 100 µM | [2] > 100 µM | [3] > 100 µM | [4] > 100 µM | [5] 56.4 µM | [6] > 100 µM | [14] > 100 µM | [15] > 100 µM | [7] > 100 µM | [8] 57.7 µM | [16] > 100 µM | [9] > 100 µM | [10] > 100 µM | [11] > 100 µM | [17] > 100 µM | [13] > 100 µM

CN/N=C(\C)C(CN1CCCCC1)C(C1=C(O)c2ccccc2OC1)c1ccccc1 (stereo not given)
inactive: [1] > 100 µM | [2] 38.4 µM | [3] > 100 µM | [4] > 100 µM | [5] > 100 µM | [6] > 100 µM | [14] > 100 µM | [15] > 100 µM | [7] > 100 µM | [8] 44.3 µM | [16] > 100 µM | [9] > 100 µM | [10] > 100 µM | [11] > 100 µM | [17] > 100 µM | [12] 91.2 µM | [13] 50.4 µM

CNC(=O)CN(CC(=O)NC)C(=O)NC
inactive: [1] > 100 µM | [2] > 100 µM | [3] > 100 µM | [4] > 100 µM | [5] > 100 µM | [6] > 100 µM | [14] > 100 µM | [15] > 100 µM | [7] > 100 µM | [8] > 100 µM | [16] > 100 µM | [9] > 100 µM | [11] > 100 µM | [17] > 100 µM | [12] > 100 µM | [13] > 100 µM

COC(=O)C1=C(C(=O)OC)SC(=CC#CC=C2SC(C(=O)OC)=C(C(=O)OC)S2)S1
inactive: [1] 25.5 µM | [2] 11.7 µM | [3] 10.8 µM | [4] 3.96 µM | [5] > 87.5 µM | [6] > 54.6 µM | [14] 9.71 µM | [15] 10.6 µM | [7] 5.94 µM | [8] > 100 µM | [16] > 32.4 µM | [9] 16.5 µM | [10] 13.5 µM | [11] 26.9 µM | [17] 9.06 µM | [12] 16.1 µM | [13] 3.51 µM

CN1C(=O)n2c(nc3ccccc32)C(N=[N+]=[N-])(N=[N+]=[N-])C1=O (stereo not given)
inactive: [1] > 100 µM | [2] > 100 µM | [3] > 100 µM | [4] > 100 µM | [5] > 100 µM | [6] > 100 µM | [14] 77.3 µM | [15] > 100 µM | [7] > 100 µM | [8] > 100 µM | [16] > 100 µM | [9] > 100 µM | [11] > 100 µM | [17] > 100 µM | [12] > 100 µM | [13] > 100 µM

N/N=C1\C(=O)N(CCc2ccccc2)C(=O)C1C(=O)NCCc1ccccc1 (stereo not given)
inactive: [1] > 100 µM | [5] > 100 µM | [6] > 100 µM | [14] > 100 µM | [15] > 100 µM | [7] > 100 µM | [8] > 100 µM | [16] > 100 µM | [9] > 100 µM | [10] > 100 µM | [11] > 100 µM | [17] > 100 µM | [12] > 100 µM | [13] > 100 µM

CCC(=O)C1=C(OC(C)=O)C2Cc3c(n(C)c4ccccc34)C(C1)N2C (stereo not given)
inactive: [1] 68.5 µM | [2] 34 µM | [3] 38 µM | [5] 33.3 µM | [6] 45.9 µM | [14] 40.5 µM | [15] > 100 µM | [7] 22.9 µM | [16] 19 µM | [9] > 100 µM | [10] 25.3 µM | [11] 26.1 µM | [17] 66.1 µM | [12] > 100 µM | [13] 36.1 µM

COc1cc2c(cc1OC)-c1cc3cc(OC)c(OC)cc3n1CC2
inactive: [1] 50.2 µM | [2] 32.4 µM | [3] 61 µM | [4] 31.6 µM | [5] 26.3 µM | [6] 38.5 µM | [15] 33.7 µM | [7] > 100 µM | [8] 71.8 µM | [16] 81.5 µM | [9] 30.5 µM | [10] > 100 µM | [11] 33.9 µM | [17] 19.9 µM | [12] 37.7 µM | [13] > 100 µM

CC1CCP(=O)(c2ccccc2)c2ccccc21 (stereo not given)
inactive: [1] > 100 µM | [2] 51.8 µM | [3] 38.8 µM | [4] 78.7 µM | [5] 25.1 µM | [6] > 100 µM | [14] 24.3 µM | [15] > 100 µM | [7] 76.2 µM | [8] 64.3 µM | [9] > 100 µM | [10] 26.2 µM | [11] > 10 µM | [17] > 100 µM | [12] 24.1 µM | [13] > 100 µM

N#Cc1c(-c2ccco2)cc(-c2ccccc2)nc1O
inactive: [1] > 100 µM | [2] > 100 µM | [3] > 100 µM | [4] > 100 µM | [5] > 100 µM | [6] > 100 µM | [14] > 100 µM | [15] > 100 µM | [7] > 100 µM | [8] > 100 µM | [16] > 100 µM | [9] > 100 µM | [10] > 100 µM | [11] > 100 µM | [17] > 100 µM | [12] > 100 µM | [13] > 100 µM

CC(C)C(=O)NS(=O)(=O)c1ccccc1
inactive: [1] > 100 µM | [2] > 100 µM | [3] > 100 µM | [4] > 100 µM | [5] > 100 µM | [6] > 100 µM | [14] > 100 µM | [15] > 100 µM | [7] > 100 µM | [8] > 100 µM | [16] > 100 µM | [9] > 100 µM | [10] > 100 µM | [11] > 100 µM | [17] > 100 µM | [12] > 100 µM | [13] > 100 µM

CCC12C=CCN3CC[C@]4(C(=C(C(=O)OC)[C@@H]1Nc1ccn(C5OC(COC(C)=O)C(OC(C)=O)C5OC(C)=O)c(=O)n1)Nc1ccccc14)C32 (stereo not given in full)
inactive: [1] 5.9 µM | [2] 4.59 µM | [3] 4.3 µM | [4] 4.93 µM | [5] 5.08 µM | [6] 1.32 µM | [14] 4.26 µM | [15] 4.47 µM | [7] 4.37 µM | [8] 5.46 µM | [16] 5.55 µM | [9] 4.93 µM | [10] 4.39 µM | [11] 4.66 µM | [17] 4.93 µM | [12] 4.27 µM | [13] 4.23 µM

COC(=O)c1cc(O)ccc1NC(=O)c1ccc(O)cc1
inactive: [1] > 100 µM | [2] > 100 µM | [3] > 100 µM | [4] > 100 µM | [5] > 100 µM | [6] > 100 µM | [14] > 100 µM | [15] > 100 µM | [7] > 100 µM | [8] > 100 µM | [16] > 100 µM | [9] > 100 µM | [11] > 100 µM | [17] 82.2 µM | [12] > 100 µM | [13] > 100 µM

Nc1n[n+]([O-])c2ccccc2[n+]1[O-] [TIRAPAZAMINE]
inactive: [1] 93.5 µM | [2] > 100 µM | [4] 53.1 µM | [5] > 100 µM | [6] > 100 µM | [14] > 100 µM | [15] > 100 µM | [7] > 100 µM | [8] 57.4 µM | [16] > 100 µM | [9] 73.1 µM | [10] > 100 µM | [11] > 100 µM | [17] > 100 µM | [12] > 100 µM | [13] > 100 µM

CC(C)OP(=O)(NC(=S)c1ccccc1)OC(C)C
inactive: [1] 92 µM | [2] > 100 µM | [3] > 100 µM | [5] > 100 µM | [6] > 100 µM | [14] > 100 µM | [15] > 100 µM | [7] > 100 µM | [16] > 100 µM | [9] > 100 µM | [10] 95.1 µM | [11] > 100 µM | [17] > 100 µM | [12] > 100 µM | [13] > 100 µM

COc1c2nc(CCl)[nH]c(=O)c2c(OC)c2nc(CCl)[nH]c(=O)c12
inactive: [1] > 100 µM | [2] > 100 µM | [4] > 100 µM | [5] > 100 µM | [6] > 100 µM | [14] > 100 µM | [15] > 100 µM | [7] > 100 µM | [8] > 100 µM | [16] > 100 µM | [9] > 100 µM | [10] > 100 µM | [11] > 100 µM | [17] > 100 µM | [12] > 100 µM | [13] > 100 µM
